Source: patent US12239662B2, “Compositions for inhibiting anaerobic microorganisms” (LPOXY THERAPEUTICS, INC, priority 2020, dated 2025)
Read-outs that look alike come from different tables or passages of the source.

Legend:
[1] = system: Clostridioides difficile ATCC 43255; conditions: for onset of action: compared between treatment groups; for cure rate: no recurrence over 14 days after inoculation; for clinical severity and recovery: total clinical score and daily weights, compared to infection control group; for survival: treatment study day 0 to day 4, followed 14 days after inoculation, 10 mice per group
Text: Thirty C57BL/6 female mice (18-22 g) fitted with duodenal catheters externalized and fitted with access button ports were purchased from Charles River Laboratories and singly housed in a temperature and humidity-controlled room with a 12-hour light cycle. The mice were divided into 3 groups of 10. All procedures used in these experimental protocols were in compliance with the Animal Welfare Act, the Guide for the Care and Use of Laboratory Animals, and the Office of Laboratory Animal Welfare.
The mice were pretreated with an antibiotic cocktail in their drinking water for 8 consecutive days. This antibiotic cocktail was composed of 1% glucose, 500 mcg/mL kanamycin, 44 mcg/mL gentamicin, 1062.5 units per milliliter colistin, 269 mcg/mL metronidazole, 156 mcg/mL ciprofloxacin, 100 mcg/mL ampicillin, and 56 mcg/mL vancomycin. The antibiotic cocktail and drinking water was replaced every 2 to 3 days. Five days prior to infection the antibiotic water was removed and normal drinking water was provided to the animals. Three days prior to infection the animals received a single dose of clindamycin 10 mg per kilogram via oral administration in a volume of 10 mL per kilogram.
On study Day 0 mice were inoculated with the bacterial suspension of 5×10^5 CFU Clostridioides difficile ATCC 43255 via oral gavage. Eight hours after inoculation administration of vehicle, antibiotic control, and test article was initiated according to the following. The vehicle a.k.a. infection control group of 10 mice received 80 μL per hour 100% pure nitrogen gas via duodenal catheter. The infection control group of 10 mice received 50 mg/kg vancomycin via oral gavage once daily. […] Administration was continued from study day 0 to study day 4, a total of 5 days. The mice were followed for 14 days after inoculum recording daily weights and clinical observations. Animals that appeared severely moribund were euthanized. At the end of the study all animals were humanely euthanized.

[2] = up to the maximum bolus tested, 200 microliters every 6 hours (8 mL/kg per bolus; 32 mL/kg/day)
Experimental: In a separate experiment using the above conditions the tolerance of bolus injection of 100% oxygen gas was tested.

| SMILES | adverse effects due to gas infusion ([1]; efficacy experiments, infusion 3.2 mL/kg/hr, 76.8 mL/kg/day via duodenal catheter) | onset of action ([1]; mouse CDI model) | animals showing signs of infection in the 2nd week after inoculation and treatment (recurrence) ([1]; mouse CDI model, days 8-14, after treatment was complete) | cure rate ([1]; mouse CDI model) [%] | clinical severity and recovery ([1]; mouse CDI model) | clinical severity and recovery ([1]; mouse CDI model, listed as Enteric aerobization therapy) | survival ([1]; mouse CDI model) [%] | adverse effects of bolus injection [2] |
| --- | --- | --- | --- | --- | --- | --- | --- | --- |
| O=O [EAT, oxygen] | no adverse effects | slower onset of action | no recurrent infections | 100 | mildly ill compared to the infection control group, recover rapidly | reduces the severity of disease, accelerates recovery | 100 | No adverse effects |
| CN[C@H](CC(C)C)C(=O)N[C@H]1C(=O)N[C@@H](CC(N)=O)C(=O)N[C@H]2C(=O)N[C@H]3C(=O)N[C@H](C(=O)N[C@H](C(=O)O)c4cc(O)cc(O)c4-c4cc3ccc4O)[C@H](O)c3ccc(c(Cl)c3)Oc3cc2cc(c3O[C@@H]2O[C@H](CO)[C@@H](O)[C@H](O)[C@H]2O[C@H]2C[C@](C)(N)[C@H](O)[C@H](C)O2)Oc2ccc(cc2Cl)[C@H]1O [vancomycin, reference compound] |  | more rapid onset of action |  | 30 |  |  | 100 |  |
